Where two headings read alike, the source gives them in different places.
Key:
[1] = tested on: M. tuberculosis H37Rv; type: in vivo, Mycobacterium tuberculosis; conditions: for reduction of mean CFU count compared to untreated mice: R10 (5/7); for Mean (SD) log10 M. tuberculosis CFU/lung: rifampin 10 mg/kg, 5/7, gavage, mice
[2] = tested on: mycobacterial ATP synthase versus eukaryotic mitochondrial ATP synthase; conditions: cited from earlier work
[3] = tested on: Mycobacterium leprae; conditions: M. lepra, mice; cited from earlier work
[4] = tested on: M. tuberculosis; conditions: mice; cited from earlier work

In the case of `CO[C@H]1/C=C/O[C@@]2(C)Oc3c(C)c(O)c4c(O)c(c(/C=N/N5CCN(C)CC5)c(O)c4c3C2=O)NC(=O)/C(C)=C\C=C\[C@H](C)[C@H](O)[C@@H](C)[C@@H](O)[C@@H](C)[C@H](OC(C)=O)[C@@H]1C` [R, rifampin], the “reduction of mean CFU count compared to untreated mice” value (from here on “reduction of mean CFU count”) ([1]; after 4 weeks of treatment) is reported as “approximately 1 log10 CFU/lung”, the “reduction of mean CFU count” value ([1]; after 8 weeks of treatment) is reported as “about 2 log10 CFU/lung” and the “reduction of mean CFU count” value ([1]; after 12 weeks of treatment) is reported as roughly 3 log10 CFU/lung. For the same compound, the “Mean (SD) log10 M. tuberculosis CFU/lung” value ([1]; Week 4) was 3.39 (0.46) log10 CFU/lung, the “Mean (SD) log10 M. tuberculosis CFU/lung” value ([1]; Week 8) was 2.74 (0.62) log10 CFU/lung and the “Mean (SD) log10 M. tuberculosis CFU/lung” value ([1]; Week 12) was 1.27 (0.85) log10 CFU/lung.

For `COc1nc2ccc(Br)cc2cc1[C@@H](c1ccccc1)[C@@](O)(CCN(C)C)c1cccc2ccccc12` [bedaquiline], the selectivity index [2] is given as “more than 20000”, the “minimal dose killing 99% of bacilli” value [3] is given as less than 5.0 mg/kg/wk and the “minimal dose killing 99% of bacilli” value [4] is given as 30 mg/kg/wk.
